Data taken from ChEMBL document CHEMBL1201862, “PubChem BioAssay data set” (2004).
The source made the active and inactive calls.

Legend:
HEK293 = assay: cells; assay type: functional, cell-based; conditions: Homo sapiens
[1] = molecular target: T1, Nuclear receptor subfamily 0 group B member 1 (Homo sapiens, UniProt P51843); assay: Luminescence-based cell-based high throughput dose response assay for inhibitors of the orphan nuclear receptor subfamily 0, group B, member 1 (DAX1; NR0B1). [Related pubchem assays (depositor defined):AID504766, AID504790]; assay type: functional
T1 sequence (P51843 whole entry): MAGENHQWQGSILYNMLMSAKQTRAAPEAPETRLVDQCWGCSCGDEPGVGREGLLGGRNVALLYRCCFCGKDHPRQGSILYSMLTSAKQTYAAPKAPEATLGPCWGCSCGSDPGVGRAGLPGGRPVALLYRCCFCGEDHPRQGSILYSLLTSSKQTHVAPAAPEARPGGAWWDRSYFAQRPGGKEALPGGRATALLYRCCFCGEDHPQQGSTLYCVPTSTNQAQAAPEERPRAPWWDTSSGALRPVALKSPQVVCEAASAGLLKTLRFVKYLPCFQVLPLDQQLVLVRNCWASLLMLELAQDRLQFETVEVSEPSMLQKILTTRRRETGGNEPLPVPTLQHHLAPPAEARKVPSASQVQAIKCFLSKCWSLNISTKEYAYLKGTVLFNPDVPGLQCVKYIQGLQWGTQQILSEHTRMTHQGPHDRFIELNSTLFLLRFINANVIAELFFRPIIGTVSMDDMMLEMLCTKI

[2] = cytotoxicity in HMLE control line with eGFP shRNA, dose response, counter-screen for HMLE_sh_ECad selective toxicity project, cell-based, HMLE_sh_eGFP, luminescence (AID 463074); assay type: functional, Homo sapiens;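 also: HMLE human mammary epithelial cells expressing control shRNA against eGFP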
[3] = Luminescence Cell-Based Dose Retest to Confirm Inhibitors of Cancer Stem Cells. [Related pubchem assays (depositor defined):AID2717, AID2721]; assay type: functional; conditions: Homo sapiens
[4] = molecular target: Intestinal-type alkaline phosphatase (Mus musculus, UniProt P24822); assay: PubChem AID 488785; assay type: functional
[5] = molecular target: Intestinal-type alkaline phosphatase (Homo sapiens, UniProt P09923); assay: inhibition of human intestinal alkaline phosphatase – biochemical, dose response (AID 488876); assay type: functional
[6] = molecular target: T2, Alkaline phosphatase, tissue-nonspecific isozyme (Homo sapiens, UniProt P05186); assay: TNAP enzyme inhibition by screening hits, dose response, selectivity assay for mouse IAP inhibitor project, biochemical, human TNAP, uHTS hits (AID 488906); assay type: functional
T2 sequence (P05186 whole entry): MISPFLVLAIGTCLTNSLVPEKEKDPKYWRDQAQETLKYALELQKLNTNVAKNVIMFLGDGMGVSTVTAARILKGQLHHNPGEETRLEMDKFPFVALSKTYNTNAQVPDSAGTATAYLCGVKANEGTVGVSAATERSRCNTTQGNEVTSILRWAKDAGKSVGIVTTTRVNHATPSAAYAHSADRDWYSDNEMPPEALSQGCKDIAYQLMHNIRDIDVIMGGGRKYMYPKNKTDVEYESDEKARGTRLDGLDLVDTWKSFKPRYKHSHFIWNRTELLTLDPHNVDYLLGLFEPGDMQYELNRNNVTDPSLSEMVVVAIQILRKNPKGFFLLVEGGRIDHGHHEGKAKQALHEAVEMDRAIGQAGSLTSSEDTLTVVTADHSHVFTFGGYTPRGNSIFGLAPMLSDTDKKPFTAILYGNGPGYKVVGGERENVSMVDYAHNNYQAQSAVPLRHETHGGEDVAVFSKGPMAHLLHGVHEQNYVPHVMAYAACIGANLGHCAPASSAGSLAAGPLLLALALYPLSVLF

Cytochrome P450 2D6 = Cytochrome P450 2D6 (Homo sapiens, UniProt P10635);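 also: CYP2D6 member of a cytochrome P450 panel assay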
Cytochrome P450 2C19 = Cytochrome P450 2C19 (Homo sapiens, UniProt P33261); assay: Cytochrome panel assay with activity outcomes. Panel member name: p450-cyp2c19 Compounds with AC50 equal or less than 10 uM are considered active; assay type: functional
Escherichia coli = assay: microbe, parasite or virus in culture
Vero = assay: cells; assay type: functional, cell-based; conditions: Chlorocebus sabaeus

Intestinal-type alkaline phosphatase (Homo sapiens, UniProt P09923), sequence (P09923 whole entry): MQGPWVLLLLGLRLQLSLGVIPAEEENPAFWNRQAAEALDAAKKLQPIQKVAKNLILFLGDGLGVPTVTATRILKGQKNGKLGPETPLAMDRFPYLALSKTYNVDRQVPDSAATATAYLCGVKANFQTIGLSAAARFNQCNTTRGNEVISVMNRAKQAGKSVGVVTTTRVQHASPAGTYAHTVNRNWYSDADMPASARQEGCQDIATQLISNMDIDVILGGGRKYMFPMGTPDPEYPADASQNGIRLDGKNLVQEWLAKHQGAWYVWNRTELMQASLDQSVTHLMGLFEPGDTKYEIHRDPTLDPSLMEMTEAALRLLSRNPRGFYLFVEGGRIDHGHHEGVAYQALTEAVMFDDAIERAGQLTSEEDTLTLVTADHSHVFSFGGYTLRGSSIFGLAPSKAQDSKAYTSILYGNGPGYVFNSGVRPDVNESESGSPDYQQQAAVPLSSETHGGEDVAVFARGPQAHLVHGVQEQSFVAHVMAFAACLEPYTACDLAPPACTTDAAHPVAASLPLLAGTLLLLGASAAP
Intestinal-type alkaline phosphatase (Mus musculus, UniProt P24822), sequence (P24822 whole entry): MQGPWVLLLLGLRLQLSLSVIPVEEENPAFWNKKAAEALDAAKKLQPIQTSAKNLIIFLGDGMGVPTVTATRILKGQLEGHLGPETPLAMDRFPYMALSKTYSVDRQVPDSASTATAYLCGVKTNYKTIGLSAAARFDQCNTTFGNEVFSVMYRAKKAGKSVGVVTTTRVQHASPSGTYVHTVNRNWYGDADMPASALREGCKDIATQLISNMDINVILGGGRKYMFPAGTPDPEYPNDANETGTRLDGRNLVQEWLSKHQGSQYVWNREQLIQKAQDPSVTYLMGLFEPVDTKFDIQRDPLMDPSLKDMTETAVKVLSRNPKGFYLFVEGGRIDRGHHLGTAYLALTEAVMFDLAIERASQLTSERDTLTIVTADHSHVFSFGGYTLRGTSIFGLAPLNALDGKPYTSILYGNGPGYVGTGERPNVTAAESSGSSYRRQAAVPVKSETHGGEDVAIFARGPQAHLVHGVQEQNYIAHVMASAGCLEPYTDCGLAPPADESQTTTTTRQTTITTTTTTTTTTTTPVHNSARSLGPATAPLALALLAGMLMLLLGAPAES
Cytochrome P450 2D6, sequence (P10635 whole entry): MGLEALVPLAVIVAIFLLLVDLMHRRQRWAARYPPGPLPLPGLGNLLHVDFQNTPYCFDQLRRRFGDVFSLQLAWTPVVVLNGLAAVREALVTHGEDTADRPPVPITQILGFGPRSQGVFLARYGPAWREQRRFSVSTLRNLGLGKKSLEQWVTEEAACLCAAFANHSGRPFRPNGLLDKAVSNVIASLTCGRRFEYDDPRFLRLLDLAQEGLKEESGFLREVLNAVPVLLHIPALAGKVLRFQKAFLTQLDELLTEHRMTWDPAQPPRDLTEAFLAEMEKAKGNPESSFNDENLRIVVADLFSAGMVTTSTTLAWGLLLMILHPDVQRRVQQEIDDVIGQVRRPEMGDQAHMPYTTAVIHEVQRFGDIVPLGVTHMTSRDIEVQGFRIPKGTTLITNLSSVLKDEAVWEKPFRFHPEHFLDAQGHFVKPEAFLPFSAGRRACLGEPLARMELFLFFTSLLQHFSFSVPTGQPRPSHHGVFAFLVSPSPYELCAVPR
Cytochrome P450 2C19, sequence (P33261 whole entry): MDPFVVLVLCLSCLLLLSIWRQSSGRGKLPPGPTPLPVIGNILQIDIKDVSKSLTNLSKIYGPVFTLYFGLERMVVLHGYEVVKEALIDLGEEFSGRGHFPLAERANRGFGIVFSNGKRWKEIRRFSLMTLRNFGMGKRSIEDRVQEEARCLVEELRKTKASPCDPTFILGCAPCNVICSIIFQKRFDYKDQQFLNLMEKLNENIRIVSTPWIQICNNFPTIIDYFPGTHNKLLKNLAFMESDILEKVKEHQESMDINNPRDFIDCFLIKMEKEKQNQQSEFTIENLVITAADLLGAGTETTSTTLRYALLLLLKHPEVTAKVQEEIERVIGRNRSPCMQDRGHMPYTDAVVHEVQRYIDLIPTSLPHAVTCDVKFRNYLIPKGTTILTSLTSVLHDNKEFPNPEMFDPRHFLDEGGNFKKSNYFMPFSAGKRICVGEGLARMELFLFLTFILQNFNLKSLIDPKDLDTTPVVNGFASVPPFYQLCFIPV

O=S(=O)(NCC1NCCc2ccccc21)c1ccccc1 (stereo not drawn)
IC50 (HEK293): > 67.6 µM (inactive) | IC50 [1]: > 67.6 µM (inactive)

O=C(CSc1ccc2ccccc2c1Br)Nc1cccc(S(=O)(=O)NC2=NCCCCC2)c1
AC50 [2]: 48 µM (active) | AC50 [3]: 1.92 µM (active)

Cc1ccc(C)c(NS(=O)(=O)c2ccc3[nH]c(=O)oc3c2)c1
IC50 [4]: 15.7 µM (active) | IC50 [5]: > 100 µM (inactive) | IC50 [6]: > 100 µM (inactive)

FC(F)Oc1ccc(NC(S)=NC2CCSc3ccccc32)cc1 (stereo not drawn)
IC50 [4]: 5.64 µM (active) | IC50 [5]: > 100 µM (inactive) | IC50 [6]: > 100 µM (inactive)

CN(C)CCNC(=O)C1CCCNC1=O (stereo not drawn)
AC50 (Cytochrome P450 2D6): inconclusive | AC50 (Cytochrome P450 2C19): inconclusive

COc1ccc(N2CC(C(=O)Nc3cc(C)on3)CC2=O)cc1 (stereo not drawn)
AC50 (Cytochrome P450 2D6): inconclusive

CCOC(=O)C1(Cc2cccc(F)c2)CCN(C2CCOCC2)CC1
AC50 (Escherichia coli): 35.1 µM (active)

COc1cccc(S(=O)(=O)NCc2ccc(C(=O)Nc3ccc(Cl)cc3)cc2)c1
AC50 [2]: 102 µM (active) | AC50 [3]: 35 µM (active)

CCOC(=O)c1sc(-c2ccccc2)cc1NC(=O)Nc1ccc([N+](=O)[O-])cc1
AC50 (Escherichia coli): 35 µM (active)

CCCn1cnc2c(SCc3ccccc3Cl)nc(N)nc21
IC50 (Vero): > 25 µM (active)
